Read-outs that look alike come from different tables or passages of the source.
Molecular target: T1, MDR1 (P-gp) (Homo sapiens, UniProt P08183)
T1 construct: expressed in transfected cells; host or cells: LLC-PK1
Assay: MDR1 LLC-PK1 permeability assay
Type: in vitro ADME
Conditions: pig, MDR1 transfected LLC-PK1 cells; for Papp at 2 h, 1 μM: permeability coefficient (Papp)
Protocol: MDR1 transfected LLC-PK1 cells were cultured and plated according to manufacturer's recommendations with the exception that the passage media contained only 2% fetal bovine serum to extend passage time out to seven days.
Both positive and negative controls were used to assess functionality of P-gp efflux in the assay. Stock solutions for assay controls and the test article were prepared in DMSO for final test concentrations of 10 and 1 μM, respectively. Final organic concentration in the assay was 1%. All dosing solutions contained 10 μM lucifer yellow to monitor LLC-PK1 cell monolayer integrity.
For the apical to basolateral determination (A to B), 75 μL of the test article in transport buffer were added to the apical side of the individual transwells and 250 μL of basolateral media, without compound or lucifer yellow, were added to each well. For the basolateral to apical determination (B to A), 250 μL of test article in transport buffer were added to each well and 75 μL transport buffer, without compound or lucifer yellow, were added to each transwell. All tests were performed in triplicate, and each compound was tested for both apical to basolateral and basolateral to apical transport. The plates were incubated for 2 hours on a Lab-Line Instruments Titer Orbital Shaker (VWR, West Chester, Pa.) at 50 rpm and 37° C. with 5% CO2. All culture plates were removed from the incubator and 50 μL of media were removed from the apical and basolateral portion of each well and added to 150 μL of 1 μM labetalol in 2:1 acetonitrile (acetonitrile): H2O, v/v.
The plates were read using a Molecular Devices (Sunnyvale, Calif.) Gemini Fluorometer to evaluate the lucifer yellow concentrations at excitation/emission wavelengths of 425/535 nm. These values were accepted when found to be below 2% for apical to basolateral and 5% basolateral to apical flux across the MDR1-transfected LLC-PK1-transfected cell monolayers. The plates were sealed and the contents of each well analyzed by LC-MS/MS. The compound concentrations were determined from the ratio of the peak areas of the compound to the internal standard (labetalol) in comparison to the dosing solution.
The LC-MS/MS system was comprised of an HTS-PAL autosampler (Leap Technologies, Carrboro, N.C.), an HP1200 HPLC (Agilent, Palo Alto, Calif.), and a MDS Sciex 4000 Q Trap system (Applied Biosystems, Foster City, Calif.). […] The total run time, including re-equilibration, for a single injection was 1.2 minutes. Mass spectrometric detection of the analytes was accomplished using the ion spray positive mode. Analyte responses were measured by multiple reaction monitoring (MRM) of transitions unique to each compound (the protonated precursor ion and selected product ions for each test article and m/z 329 to m/z 162 for labetalol, the internal standard).
The permeability coefficient (Papp) is calculated from the following equation: […]
where Cd, V, t and C0 are the detected concentration (μM), the volume on the dosing side (mL), the incubation time (s) and the initial dosing concentration (μM), respectively. The calculations for Papp were made for each replicate and then averaged. In this assay, a compound is defined has having high permeability if the permeability is greater than 8×10^−6 cm/sec, a compound is defined has having medium permeability if the permeability is from 2×10^−6 cm/sec to 8×10^−6 cm/sec, and a compound is defined has having low permeability if the permeability is less than 2×10^−6 cm/sec.
An efflux ratio was calculated from the mean apical to basolateral (A-B) Papp data and basolateral to apical (B-A) Papp data:
Efflux ratio=Papp(B−A)/Papp(A−B)

[1] = LLC-PK1, efflux ratio = Papp(B-A)/Papp(A-B), read-out: MDR1 Pe Ratio
[2] = LLC-PK1, Papp(B−A)/Papp(A−B), test article 1 μM, 2 hours, 37° C., read-out: Efflux ratio

T1 sequence (P08183 whole entry): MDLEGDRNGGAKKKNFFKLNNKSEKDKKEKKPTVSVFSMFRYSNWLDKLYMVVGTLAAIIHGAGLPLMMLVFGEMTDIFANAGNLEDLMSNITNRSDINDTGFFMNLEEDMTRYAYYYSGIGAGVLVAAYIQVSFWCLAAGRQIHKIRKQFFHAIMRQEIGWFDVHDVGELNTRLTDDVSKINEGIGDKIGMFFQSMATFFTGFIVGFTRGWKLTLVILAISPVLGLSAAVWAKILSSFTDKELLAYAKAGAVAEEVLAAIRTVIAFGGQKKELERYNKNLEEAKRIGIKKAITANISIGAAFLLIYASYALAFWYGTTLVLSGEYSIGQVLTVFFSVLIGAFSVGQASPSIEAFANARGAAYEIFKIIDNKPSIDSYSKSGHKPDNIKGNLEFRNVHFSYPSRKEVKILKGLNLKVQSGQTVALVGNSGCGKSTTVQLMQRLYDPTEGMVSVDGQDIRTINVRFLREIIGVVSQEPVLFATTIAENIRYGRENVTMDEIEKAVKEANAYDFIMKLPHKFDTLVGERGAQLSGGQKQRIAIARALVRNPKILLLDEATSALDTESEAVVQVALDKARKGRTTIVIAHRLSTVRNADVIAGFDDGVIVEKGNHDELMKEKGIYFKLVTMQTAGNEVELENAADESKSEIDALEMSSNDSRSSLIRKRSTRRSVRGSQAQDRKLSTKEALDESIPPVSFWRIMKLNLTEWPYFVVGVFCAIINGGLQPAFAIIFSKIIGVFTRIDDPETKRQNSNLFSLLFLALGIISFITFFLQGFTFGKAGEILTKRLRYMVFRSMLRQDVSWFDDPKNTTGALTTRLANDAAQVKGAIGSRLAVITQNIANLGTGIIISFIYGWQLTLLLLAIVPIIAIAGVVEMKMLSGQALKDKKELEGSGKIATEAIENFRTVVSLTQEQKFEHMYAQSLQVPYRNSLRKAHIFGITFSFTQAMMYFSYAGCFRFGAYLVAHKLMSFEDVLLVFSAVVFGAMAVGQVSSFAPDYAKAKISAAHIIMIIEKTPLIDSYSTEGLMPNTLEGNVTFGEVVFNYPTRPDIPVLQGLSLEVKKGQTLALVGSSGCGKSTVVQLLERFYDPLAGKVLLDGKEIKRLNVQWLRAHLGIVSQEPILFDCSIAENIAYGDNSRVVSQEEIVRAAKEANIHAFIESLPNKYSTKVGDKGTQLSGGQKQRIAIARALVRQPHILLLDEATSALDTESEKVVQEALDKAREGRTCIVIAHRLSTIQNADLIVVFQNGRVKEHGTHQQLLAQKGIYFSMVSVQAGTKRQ

Row | SMILES | efflux ratio at 2 h, 1 μM [1] | Papp at 2 h, 1 μM | efflux ratio at 2 h, 1 μM [2]
1 | COc1cc2nccc(Oc3ccc(NC(=O)c4cn(C(C)C)cc(-c5ccc(F)cc5Cl)c4=O)nc3)c2cc1OC [Example 18, 5-(2-chloro-4-fluorophenyl)-N-(5-((6,7-dimethoxyquinolin-4-yl)oxy)pyridin-2-yl)-1-isopropyl-4-oxo-1,4-dihydropyridine-3-carboxamide] | 2.1 | 11 ×10⁻⁶ cm/s | 3.5
2 | CCc1c(-c2ccc(F)cc2)c(=O)c(C(=O)Nc2ccc(Oc3ccnc4cc(OC)c(OC)cc34)cn2)cn1C(C)C [Example 29, N-(5-((6,7-dimethoxyquinolin-4yl)oxy)pyridin-2-yl)-6-ethyl-5-(4-fluorophenyl)-1-isopropyl-4-oxo-1,4-dihydropyridine-3-carboxamide] | 3.6 | 10 ×10⁻⁶ cm/s | –
3 | COc1cc2nccc(Oc3ccc(NC(=O)c4cn(C(C)C)c(C)c(-c5ccc(F)cc5)c4=O)nc3)c2cc1OC [Example 27, N-(5-((6,7-dimethoxyquinolin-4yl)oxy)pyridin-2-yl)-5-(4-fluorophenyl)-1-isopropyl-6-methyl-4-oxo-1,4-dihydropyridine-3-carboxamide] | 5.5 | 16 ×10⁻⁶ cm/s | –
4 | COc1ccc(-c2cn(C(C)C)cc(C(=O)Nc3ccc(Oc4ccnc5cc(OC)c(OC)cc45)cn3)c2=O)c(F)c1 [Example 31, N-(5-((6,7-dimethoxyquinolin-4yl)oxy)pyridin-2-yl)-5-(2-fluoro-4-methoxyphenyl)-1-isopropyl-4-oxo-1,4-dihydropyridine-3-carboxamide] | 2 | 11 ×10⁻⁶ cm/s | 3.5
5 | COc1cc(-c2cn(C(C)C)cc(C(=O)Nc3ccc(Oc4ccnc5cc(OC)c(OC)cc45)cn3)c2=O)ccc1F [Example 20, N-(5-((6,7-dimethoxyquinolin-4yl)oxy)pyridin-2-yl)-5-(4-fluoro-3-methoxyphenyl)-1-isopropyl-4-oxo-1,4-dihydropyridine-3-carboxamide] | 3.6 | 9 ×10⁻⁶ cm/s | –
6 | COc1ccc2nccc(Oc3ccc(NC(=O)c4cn(C)cc(-c5ccc(F)cc5)c4=O)nc3)c2c1 [Example 41, 5-(4-fluorophenyl)-N-(5-((6-methoxyquinolin-4yl)oxy)pyridin-2-yl)-1-methyl-4-oxo-1,4-dihydropyridine-3-carboxamide] | 2.5 | 7 ×10⁻⁶ cm/s | 3.5
7 | COc1cc2nccc(Oc3ccc(NC(=O)c4cn(CC(=O)N5CCOCC5)cc(-c5ccc(F)cc5F)c4=O)nc3)c2cc1OC [Example 15, 5-(2,4-difluorophenyl)-N-(5-((6,7-dimethoxyquinolin-4-yl)oxy)pyridin-2-yl)-1-(2-morpholino-2-oxoethyl)-4-oxo-1,4-dihydropyridine-3-carboxamide] | 135 | 2 ×10⁻⁶ cm/s | –
8 | COc1cc2nccc(Oc3ccc(NC(=O)c4cn(CC5CCOCC5)cc(-c5ccc(F)cc5)c4=O)nc3)c2cc1OC [Example 8, N-(5-((6,7-dimethoxyquinolin-4-yl)oxy)pyridin-2-yl)-5-(4-fluorophenyl)-4-oxo-1-((tetrahydro-2H-pyran-4-yl)methyl)-1,4-dihydropyridine-3-carboxamide] | 10 | 9 ×10⁻⁶ cm/s | –
9 | COc1ccc(-c2cn(C(C)C)cc(C(=O)Nc3ccc(Oc4ccnc5cc(OC)c(OC)cc45)cn3)c2=O)cc1 [Example 30, N-(5-((6,7-dimethoxyquinolin-4yl)oxy)pyridin-2-yl)-1-isopropyl-5-(4-methoxyphenyl)-4-oxo-1,4-dihydropyridine-3-carboxamide] | 3.1 | 7 ×10⁻⁶ cm/s | 3.5
10 | COc1cc2nccc(Oc3ccc(NC(=O)c4cn(C5CCOCC5)cc(-c5ccc(F)cc5)c4=O)nc3)c2cc1OC [Example 12, N-(5((6,7-dimethoxyquinolin-4-yl)oxy)pyridin-2-yl)-5-(4-fluorophenyl)-4-oxo-1-(tetrahydro-2H-pyran-4-yl)-1,4-dihydropyridine-3-carboxamide] | 15 | 13 ×10⁻⁶ cm/s | –
11 | COc1cc2nccc(Oc3ccc(NC(=O)c4cn(C(C)C)cc(-c5ccc(F)cc5C)c4=O)nc3)c2cc1OC [Example 19, N-(5-((6,7-dimethoxyquinolin-4yl)oxy)pyridin-2-yl)-5-(4-fluoro-2-methylphenyl)-1-isopropyl-4-oxo-1,4-dihydropyridine-3-carboxamide] | 2.8 | 11 ×10⁻⁶ cm/s | 3.5
12 | COc1cc2nccc(Oc3ccc(NC(=O)c4cn(C(C)C)cc(-c5ccc(F)cc5)c4=O)nc3)c2cc1OC [Example 1] | 3.2 | 10 ×10⁻⁶ cm/s | 3.5
13 | COc1ccc2nccc(Oc3ccc(NC(=O)c4cn(C(C)C)c(C)c(-c5ccc(F)cc5)c4=O)nc3)c2c1 [Example 33, 5-(4-fluorophenyl)-1-isopropyl-N-(5-((6-methoxyquinolin-4-yl)oxy)pyridin-2-yl)-6-methyl-4-oxo-1,4-dihydropyridine-3-carboxamide] | 2 | 10 ×10⁻⁶ cm/s | 3.5

The next lines start with the values.

Row | efflux ratio at 2 h, 1 μM [1] | Papp at 2 h, 1 μM | efflux ratio at 2 h, 1 μM [2] | SMILES
14 | 3.4 | 5 ×10⁻⁶ cm/s | – | COc1cc2nc(C)cc(Oc3ccc(NC(=O)c4cn(C(C)C)cc(-c5ccc(F)cc5)c4=O)nc3)c2cc1OC [Example 53, N-(5-((6,7-dimethoxy-2-methylquinolin-4-yl)oxy)pyridin-2-yl)-5-(4-fluorophenyl)-1-isopropyl-4-oxo-1,4-dihydropyridine-3-carboxamide]
15 | 0.99 | 4 ×10⁻⁶ cm/s | 3.5 | COc1cc2c(Oc3ccc(NC(=O)c4cn(C(C)C)cc(-c5ccc(F)cc5)c4=O)nc3)ccnc2cc1F [Example 49, N-(5-((7-fluoro-6-methoxyquinolin-4yl)oxy)pyridin-2-yl)-5-(4-fluorophenyl)-1-isopropyl-4-oxo-1,4-dihydropyridine-3-carboxamide]
16 | 9.3 | – | – | COc1ccc2nccc(Oc3ccc(NC(=O)c4cn(CCN(C)C)cc(-c5ccc(F)cc5)c4=O)nc3)c2c1 [Example 47]
17 | 2 | 3 ×10⁻⁶ cm/s | 3.5 | CCOc1ccc2nccc(Oc3ccc(NC(=O)c4cn(C(C)C)cc(-c5ccc(F)cc5)c4=O)nc3)c2c1 [Example 51, N-(5-((6-ethoxyquinolin-4-yl)oxy)pyridin-2-yl)-5-(4-fluorophenyl)-1-isopropyl-4-oxo-1,4-dihydropyridine-3-carboxamide]
18 | 2.5 | 15 ×10⁻⁶ cm/s | 3.5 | COc1cc2ncc(C#N)c(Oc3ccc(NC(=O)c4cn(C(C)C)cc(-c5ccc(F)cc5)c4=O)nc3)c2cc1OC [Example 57, N-(5-((3-cyano-6,7-dimethoxyquinolin-4-yl)oxy)pyridin-2-yl)-5-(4-fluorophenyl)-1-isopropyl-4-oxo-1,4-dihydropyridine-3-carboxamide]
19 | 1.8 | 2 ×10⁻⁶ cm/s | 3.5 | CCOc1ccc2c(Oc3ccc(NC(=O)c4cn(C(C)C)cc(-c5ccc(F)cc5)c4=O)nc3)ccnc2c1 [Example 52, N-(5-((7-ethoxyquinolin-4-yl)oxy)pyridin-2-yl)-5-(4-fluorophenyl)-1-isopropyl-4-oxo-1,4-dihydropyridine-3-carboxamide]
20 | 11 | 2 ×10⁻⁶ cm/s | – | COc1cc2nccc(Oc3ccc(NC(=O)c4cn(CCN(C)C)cc(-c5ccc(F)cc5F)c4=O)nc3)c2cc1OC [Example 44, 5-(2,4-difluorophenyl)-N-(5-((6,7-dimethoxyquinolin-4-yl)oxy)pyridin-2-yl)-1-(2-(dimethylamino)ethyl)-4-oxo-1,4-dihydropyridine-3-carboxamide]

— patent US20200216416A1, “QUINOLINE COMPOUNDS AS INHIBITORS OF TAM AND MET KINASES” (Array BioPharma Inc., priority 2019, published 2020)
